Data: patent publication US11696593B2, “Astaxanthin nutritional compositions and uses” (Bioscience Formulators, LLC, priority 2018, dated 2023)

System: subject having diabetes with A1C as high as 13
Assay: blood A1C level of a diabetic subject, astaxanthin alone and then the daily dose (Example 4)
Format: in vivo, human
Details: one subject, 12-24 mg of astaxanthin a day
Source text: They begin taking softgel capsules of the daily dose of Example 1 and after 6 weeks their blood A1C level is 5.6 with no changes in diet or habits.

CC1=C(/C=C/C(C)=C/C=C/C(C)=C/C=C/C=C(C)/C=C/C=C(C)/C=C/C2=C(C)C(=O)C(O)CC2(C)C)C(C)(C)CC(O)C1=O (stereo not drawn) [astaxanthin, 3,3′-dihydroxy-β-carotene-4,4′-dione]
blood A1C levels: ≤ 13%
